Measured values: publication PMC5556071, “ATR inhibition facilitates targeting of leukemia dependence on convergent nucleotide biosynthetic pathways” (Nature Communications, 2017)
Like-named read-outs stand apart in the source and are kept apart here.

Legend:
[1] = system: dasatinib-resistant p185BCR-ABL Arf–/– pre-B-ALL cells; experiment: Apoptosis assay, Annexin V and PI staining; assay type: cell-based, mouse; details: 350 nM 3-AP, 100 nM VE-822, 1 µM dCKi, 72 h
Protocol: (§1) Apoptosis and cell death were assayed using Annexin V-FITC and PI according to manufacturer’s instructions (FITC Annexin V Apoptosis Detection Kit, BD Sciences, #556570). […]
(§2) Annexin V staining. Cells were treated with the indicated treatments for 24 or 72 h, then collected and washed twice with 1 mL of FACS buffer (2% FBS in PBS). Induction of apoptosis and cell death were assayed by staining the cells with Annexin V-FITC and PI according to manufacturer’s instructions (FITC Annexin V Apoptosis Detection Kit, BD Sciences, #556570).
(§3) FACS analysis. All flow cytometry data were acquired on five-laser LSRII cytometers (BD) for analysis, and analyzed using FlowJo software (Tree Star). […]

[2] = system: CEM cells; experiment: Phospho-histone 3 (H3 pS10) staining, flow cytometry; assay type: cell-based, human; details: 500 nM 3-AP, 1 µM VE-822, 1 µM dCKi, 24 h
Protocol: Phospho-histone 3 staining. Cells were treated with drug combinations of three drugs. 24 h following treatment, cells were fixed and permeabilized with 1% PFA and 1X Perm/wash solution respectively.
Following fixation and permeabilization, cells were stained intracellularly with pH3 Ser10 antibody conjugated to AF647 (Cell signaling, #12230). Cells were then washed with PBS, stained with 0.5 mL of DAPI for DNA content (1 µg/mL in 2% FBS in PBS) before data acquisition. […]
FACS analysis. All flow cytometry data were acquired on five-laser LSRII cytometers (BD) for analysis, and analyzed using FlowJo software (Tree Star). The cell cycle durations were calculated using equations for multiple time-point measurements according to previously published methods (Terry and White, 2006).

[3] = system: CEM cells; experiment: Apoptosis assay, Annexin V and PI staining; assay type: cell-based, human; details: 500 nM 3-AP, 1 µM VE-822, 1 µM dCKi, 24 h
Protocol: as §1, §2, §3

[4] = Plasma pharmacokinetics after single dose oral co-administration; assay type: in vivo, C57BL/6 mice
Protocol: 3-AP, dCKi, VE-822 plasma concentrations were assessed at 0.5, 1, 2, 4, 6, 12 and 24 h following oral administration. Blood samples were collected in heparin-EDTA tubes by the retro-orbital technique and spun down to collect the supernatants. Four parts of methanol were added to plasma samples to precipitate proteins, and the supernatant was collected. Twenty microliter samples were injected onto a reverse phase column equilibrated in water 0.1% formic acid for LC-MS/MS-MRM analysis in positive ion mode. Plasma concentrations were determined by comparison to previously generated standard curves. A population pharmacokinetic modeling (NONMEM v. 7.2) with first-order conditional estimation (FOCE) was used to characterize the Cmax, half-life, and area under the curve (AUC) for 3-AP, dCKi, and VE-822. 3-AP and VE-822 were best described with a one compartment model while dCKi was best described by a two-compartment model. All three drugs were well described with first order absorption and a proportional error model. Clearance and volume were scaled by weight. […]
Plasma collection and pharmacokinetic assays. Blood was collected in heparin-EDTA tubes by retro-orbital technique at time points 0.25, 1, 6, and 24 h time points from the first set of mice and 0.5, 4, and 12 h from the second set of mice. Blood samples were spun at 2000 x g for 15 min and the plasma supernatants were collected. All plasma samples were frozen down at –20 °C before sample processing. The stock solutions of 3-AP, VE-822, DI-82, 3-AP analog (NSC 266749), VE-821 (Selleckchem), DI-39 were prepared individually by dissolving the appropriate amount of each drug in a known volume of dimethyl sulfoxide (DMSO) to a 10 mM concentration and were stored at –20 °C before use. The 3-AP analog, VE-821 and DI-39 (internal standards) were diluted to 200 nM in methanol to make the internal solution. The calibration standards were prepared by spiking working stock solutions of 3-AP, VE-822 and DI-82 in plasma from untreated mice to give 0.01-10 pmol/µL range. Each 20 µL calibration standard sample was mixed with 60 µL of internal solution (methanol with 200 nM internal standards) and vortexed for 30 s. Following centrifugation at 15,000 x g for 10 min, approximately 60 µL of sample was carefully transferred into HPLC injector vials for LC-MS/MS-MRM analysis.
Plasma samples were processed the same way as the calibration standard samples. 20 μL samples were injected onto a reverse phase column, (Thermo Scientific Hypersil GOLD column 3.0 µm; 2.1 x 100 mm) equilibrated in water/formic acid, 100/0.1, and eluted (200 μL/min) with an increasing concentration of solvent […]
The effluent from the column was directed to the Agilent Jet Stream ion source connected to the triple quadrupole mass spectrometer (Agilent 6460) operating in the multiple reaction monitoring (MRM) mode using previously optimized settings. The following drug precursor→fragment ion transitions were used: 3-AP

[5] = cells harvested from bone marrow of a treated leukemic mouse
[6] = cells prior to inoculation in mice
[7] = 3-AP 15, VE-822 40, dCKi 50 mg kg−1
[8] = C57BL/6, mouse, 40 mg/kg, 3-AP 15, VE-822 40, dCKi 50 mg kg−1

AUC [4, 7]	Cmax [4, 7]	t1/2 [4, 7]	SMILES	Annexin V+ cells (apoptosis induction) [1, 5]	Annexin V+ cells (apoptosis induction) [1, 6]	H3 pS10 plot, upper percentage (gate not given) [2]	Annexin V+ cells (apoptosis induction) [3]	Cmax [4, 8]	half-life [4, 8]	AUC ([4]; C57BL/6, mouse, 40 mg/kg, 3-AP 15, VE-822 40, dCKi 50 mg kg−1, read-out: AUC)
9.2 ± 1.8 µM·h	2300 ± 700 nM	3.3 ± 1.0 h	NC(=S)N/N=C/c1ncccc1N [3-AP]	22.0%	32.6%	1.8%	31.0%	–	–	–
–	–	–	CNCc1ccc(-c2cc(-c3nc(-c4ccc(S(=O)(=O)C(C)C)cc4)cnc3N)on2)cc1 [VE-822]	12.9%	20.7%	6.5%	10.3%	1800 ± 200 nM	17 ± 1 h	55 ± 2 µM·h
63 ± 4 µM·h	6400 ± 700 nM	8.5 ± 3.0 h	COc1ccc(-c2nc([C@@H](C)Sc3nc(N)cc(N)n3)c(C)s2)cc1OCCNS(C)(=O)=O [dCKi]	11.0%	20.4%	2.4%	11.1%	–	–	–
